Like-named read-outs stand apart in the source and are kept apart here.
Columns and labels:
[1] = target: CDK7/cyclinH/MAT1 trimeric complex (Homo sapiens, UniProt P50613); assay: In vitro CDK7 assay, potency of irreversible covalent inhibitors (kinact/KI), coupled PK/LDH ADP readout at 340 nm; conditions: for Ki: CDK7 (20 nM enz.) (KI, μM); for kinact: read-out: CDK7 (20 nM enz.) (kinact, s^−1), 20 nM enzyme
[2] = test system: RNA Polymerase II Serine 5 phosphorylation in A549 cells overexpressing CDK7-mutant (C312S); assay: Imaging-based cellular RNA PolII Ser5 phosphorylation assay in A549 cells overexpressing CDK7-mutant (C312S); assay type: cell-based, human; conditions: RNA PolII Ser5 phosphorylation, averaged over all measurements; for IC50: Homo sapiens, A549, A549 cells overexpressing CDK7-mutant (C312S), read-out: CDK7_A549 mutant hCDK7(pIC50) (converted)
Method in brief: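 Readout was automated imaging of anti-phospho-Ser5 Rpb1 CTD immunofluorescence, with IC50 fitted to % control versus concentration. Cells were A549 stably overexpressing non-covalently targetable CDK7 C312S alongside wild-type, exposed to compound 3 h at 37 °C. DMSO and 10 μM reference compound served as controls.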

[3] = test system: RNA Polymerase II Serine 5 phosphorylation (Rpb1 CTD, downstream substrate of CDK7) in A549 cells; assay: Imaging-based cellular RNA PolII Ser5 phosphorylation assay in A549 cells; assay type: cell-based, human; conditions: wild-type CDK7, RNA PolII Ser5 phosphorylation, averaged over all measurements; for IC50: Homo sapiens, A549, A549 cells, read-out: CDK7_A549 Wild-type CDK7 (pIC50) (converted)
Method in brief: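 IC50 derived by fitting % control (DMSO high, 10 μM reference low) against concentration, with Hill slope. Readout: high-content imaging of phospho-Ser5 Rpb1 CTD antibody staining in fixed, permeabilized A549 cells exposed to compound 3 h after 20 h culture in 1% FBS DMEM.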

[4] = read-out: CDK7 (20 nM enz.) (kobs/[I], M^−1*s^−1), 20 nM enzyme
[5] = read-out: CDK7 (20 nM enz.) (kinact/KI, M^−1*s^−1), 20 nM enzyme

Chain of CDK7/cyclinH/MAT1 trimeric complex (P50613 whole entry): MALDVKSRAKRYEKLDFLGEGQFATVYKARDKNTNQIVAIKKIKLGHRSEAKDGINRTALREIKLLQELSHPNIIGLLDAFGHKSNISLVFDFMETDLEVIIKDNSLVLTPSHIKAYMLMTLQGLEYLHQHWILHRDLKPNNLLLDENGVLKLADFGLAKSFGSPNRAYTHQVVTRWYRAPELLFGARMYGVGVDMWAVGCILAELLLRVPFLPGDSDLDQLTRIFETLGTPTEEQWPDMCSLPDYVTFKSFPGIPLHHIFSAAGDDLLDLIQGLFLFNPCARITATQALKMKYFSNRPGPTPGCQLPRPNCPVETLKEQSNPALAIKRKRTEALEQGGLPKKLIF
Chain of CDK7/cyclinH/MAT1 trimeric complex (P51946 whole entry partner): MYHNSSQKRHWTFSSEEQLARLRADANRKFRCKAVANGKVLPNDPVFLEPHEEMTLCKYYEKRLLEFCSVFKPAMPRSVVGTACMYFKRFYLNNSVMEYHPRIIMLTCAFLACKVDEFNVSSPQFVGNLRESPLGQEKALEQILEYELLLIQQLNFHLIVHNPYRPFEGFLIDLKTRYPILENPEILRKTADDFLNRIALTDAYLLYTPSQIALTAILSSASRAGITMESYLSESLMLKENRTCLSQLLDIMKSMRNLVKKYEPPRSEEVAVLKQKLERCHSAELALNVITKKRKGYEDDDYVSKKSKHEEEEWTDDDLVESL
Chain of CDK7/cyclinH/MAT1 trimeric complex (P51948 whole entry partner): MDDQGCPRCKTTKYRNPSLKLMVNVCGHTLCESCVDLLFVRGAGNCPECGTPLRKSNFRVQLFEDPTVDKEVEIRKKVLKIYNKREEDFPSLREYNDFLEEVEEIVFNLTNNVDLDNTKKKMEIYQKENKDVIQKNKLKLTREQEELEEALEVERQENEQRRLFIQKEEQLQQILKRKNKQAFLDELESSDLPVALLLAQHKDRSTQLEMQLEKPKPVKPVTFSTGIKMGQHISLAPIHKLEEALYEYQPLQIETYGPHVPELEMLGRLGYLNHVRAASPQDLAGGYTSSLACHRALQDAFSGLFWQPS

| CDK7 (20 nM enz.) (kinact, s^−1) ([1]; 20 nM enzyme) | CDK7 (20 nM enz.) (kinact/KI, M^−1*s^−1) ([1]; 20 nM enzyme) | Ki ([1]; 20 nM enzyme) | CDK7_A549 mutant hCDK7(pIC50) ([2]; A549 cells overexpressing CDK7-mutant (C312S)) | CDK7_A549 Wild-type CDK7 (pIC50) ([3]; A549 cells) | kinact/KI [1, 4] | IC50 [2] | IC50 [3] | kinact [1] | kinact/KI [1, 5] | SMILES |
| --- | --- | --- | --- | --- | --- | --- | --- | --- | --- | --- |
| 7.882e-05 s⁻¹ | 551.654 M⁻¹ s⁻¹ | 0.143 µM | ~5 | 6.77 |  |  |  |  |  | C=CC(=O)N1CC[C@H](N2CC(c3cc4c(c(C5CC5)n3)OCc3c(N5CCOCC5)ccnc3N4)C2)C1 (single isomer, unassigned) [Compound 447] |
|  |  |  |  |  | 328 M⁻¹ s⁻¹ | 2340 nM | 33.1 nM |  |  | CC#CC(=O)N1CC(n2cc(-c3cc(C#N)c4c(c3)Nc3nccc(N5CCOCC5)c3[C@H](C)O4)cn2)C1 (single isomer, unassigned) [Compound 449] |
|  |  | 0.0493 µM |  |  |  | 6920 nM | 64.6 nM | 4.92e-05 s⁻¹ | 997 M⁻¹ s⁻¹ | C=CC(=O)N1CC(N2CC[C@H](c3cc4c(c(C)n3)OCc3c(N5CCOCC5)ccnc3N4)N(C)CC2)C1 (single isomer, unassigned) [Compound 452] |
|  |  | 0.245 µM |  |  |  | > 10000 nM | 257 nM | 5.68e-05 s⁻¹ | 232 M⁻¹ s⁻¹ | C=CC(=O)N1CC(N2CC[C@@H](c3cc4c(c(C)n3)OCc3c(N5CCOCC5)ccnc3N4)N(C)CC2)C1 (single isomer, unassigned) [Compound 454] |
|  |  |  |  |  |  | > 10000 nM | 91.2 nM |  | 179 M⁻¹ s⁻¹ | C=CC(=O)N1CC[C@H](N2CC(c3cc4c(c(C)n3)O[C@H](C)c3c(N5CCOCC5)ccnc3N4)C2)C1 (single isomer, unassigned) [Compound 455] |
|  |  | 24.6 µM |  |  |  | > 10000 nM | 2880 nM | 0.000114 s⁻¹ | 4.65 M⁻¹ s⁻¹ | C=CC(=O)N1CC[C@@H](N2CC(c3cc4c(c(C)n3)O[C@@H](C)c3c(N5CCOCC5)ccnc3N4)C2)C1 (single isomer, unassigned) [Compound 456] |
|  |  | 0.214 µM |  |  |  | > 10000 nM | 91.2 nM | 0.000104 s⁻¹ | 485 M⁻¹ s⁻¹ | C=CC(=O)N1CC[C@@H](N2CC(c3cc4c(c(C)n3)O[C@H](C)c3c(N5CCOCC5)ccnc3N4)C2)C1 (single isomer, unassigned) [Compound 457] |
|  |  | 19.2 µM |  |  |  | > 10000 nM | 5250 nM | 6.89e-05 s⁻¹ | 3.59 M⁻¹ s⁻¹ | C=CC(=O)N1CC[C@H](N2CC(c3cc4c(c(C)n3)O[C@@H](C)c3c(N5CCOCC5)ccnc3N4)C2)C1 (single isomer, unassigned) [Compound 458] |
|  |  |  |  |  | 734 M⁻¹ s⁻¹ | 4370 nM | 72.4 nM |  |  | C=CC(=O)N1CC[C@H](N2CC(c3cc(C#N)c4c(c3)Nc3nccc(N5CCOCC5)c3[C@@H](C)O4)C2)C1 (single isomer, unassigned) [Compound 459] |
|  |  |  |  |  |  | > 10000 nM | 1290 nM |  | 14.4 M⁻¹ s⁻¹ | C=CC(=O)N1CC[C@H](N2CC(c3cc(C#N)c4c(c3)Nc3nccc(N5CCOCC5)c3[C@H](C)O4)C2)C1 (single isomer, unassigned) [Compound 460] |
|  |  |  |  |  |  | > 10000 nM | 692 nM |  | 16.1 M⁻¹ s⁻¹ | C=CC(=O)N1CC[C@@H](N2CC(c3cc(C#N)c4c(c3)Nc3nccc(N5CCOCC5)c3[C@H](C)O4)C2)C1 (single isomer, unassigned) [Compound 461] |
|  |  |  |  |  |  | 5250 nM | 50.1 nM |  | 509 M⁻¹ s⁻¹ | C=CC(=O)N1CC[C@@H](N2CC(c3cc(C#N)c4c(c3)Nc3nccc(N5CCOCC5)c3[C@@H](C)O4)C2)C1 (single isomer, unassigned) [Compound 462] |
|  |  | 0.423 µM |  |  |  | > 10000 nM | 1050 nM | 3.44e-05 s⁻¹ | 81.3 M⁻¹ s⁻¹ | C=CC(=O)N1CC[C@H](N2CC(c3cc4c(c(C5CC5)n3)O[C@H](C)c3c(N5CCOCC5)ccnc3N4)C2)C1 (single isomer, unassigned) [Compound 463] |
|  |  | 4.03 µM |  |  |  | > 10000 nM | 7590 nM | 2.27e-05 s⁻¹ | 5.64 M⁻¹ s⁻¹ | CC#CC(=O)N1CC[C@@H](N2CC(c3cc4c(c(C5CC5)n3)O[C@H](C)c3c(N5CCOCC5)ccnc3N4)C2)C1 (single isomer, unassigned) [Compound 464] |
|  |  | 0.0329 µM |  |  |  | 7080 nM | 72.4 nM | 2.79e-05 s⁻¹ | 848 M⁻¹ s⁻¹ | C=CC(=O)N1CCC(N2CC(c3cc4c(c(C)n3)O[C@H](C)c3c(C5CCOCC5)ccnc3N4)C2)CC1 (single isomer, unassigned) [Compound 465] |
|  |  | 0.0307 µM |  |  |  | > 10000 nM | 123 nM | 5.02e-05 s⁻¹ | 1630 M⁻¹ s⁻¹ | C=CC(=O)N1CC[C@H](N2CC(c3cc4c(c(C5CC5)n3)O[C@@H](C)c3c(N5CCOCC5)ccnc3N4)C2)C1 (single isomer, unassigned) [Compound 466] |

| CDK7 (20 nM enz.) (kinact, s^−1) ([1]; 20 nM enzyme) | CDK7 (20 nM enz.) (kinact/KI, M^−1*s^−1) ([1]; 20 nM enzyme) | Ki ([1]; 20 nM enzyme) | CDK7_A549 mutant hCDK7(pIC50) ([2]; A549 cells overexpressing CDK7-mutant (C312S)) | CDK7_A549 Wild-type CDK7 (pIC50) ([3]; A549 cells) | kinact/KI [1, 4] | IC50 [2] | IC50 [3] | kinact [1] | kinact/KI [1, 5] | SMILES |
| --- | --- | --- | --- | --- | --- | --- | --- | --- | --- | --- |
|  |  | 0.0121 µM |  |  |  | > 10000 nM | 117 nM | 3.18e-05 s⁻¹ | 2630 M⁻¹ s⁻¹ | C=CC(=O)N1CC[C@@H](N2CC(c3cc4c(c(C5CC5)n3)O[C@@H](C)c3c(N5CCOCC5)ccnc3N4)C2)C1 (single isomer, unassigned) [Compound 467] |
|  |  | 2.21 µM |  |  |  | > 10000 nM | 2040 nM | 3.64e-05 s⁻¹ | 16.5 M⁻¹ s⁻¹ | C=CC(=O)N1CCC(N2CC(c3cc4c(c(C)n3)O[C@@H](C)c3c(C5CCOCC5)ccnc3N4)C2)CC1 (single isomer, unassigned) [Compound 468] |
|  |  | 1.32 µM |  |  |  | > 10000 nM | 2140 nM | 4.03e-05 s⁻¹ | 30.5 M⁻¹ s⁻¹ | C=CC(=O)N1CC[C@@H](N2CC(c3cc4c(c(C5CC5)n3)O[C@H](C)c3c(N5CCOCC5)ccnc3N4)C2)C1 (single isomer, unassigned) [Compound 469] |
|  |  | 0.0394 µM |  |  |  | > 10000 nM | 251 nM | 3e-05 s⁻¹ | 761 M⁻¹ s⁻¹ | CC#CC(=O)N1CC[C@H](N2CC(c3cc4c(c(C5CC5)n3)O[C@@H](C)c3c(N5CCOCC5)ccnc3N4)C2)C1 (single isomer, unassigned) [Compound 470] |
|  |  | 3.64 µM |  |  |  | > 10000 nM | 7080 nM | 3.28e-05 s⁻¹ | 9.02 M⁻¹ s⁻¹ | CC#CC(=O)N1CC[C@H](N2CC(c3cc4c(c(C5CC5)n3)O[C@H](C)c3c(N5CCOCC5)ccnc3N4)C2)C1 (single isomer, unassigned) [Compound 471] |
|  |  |  |  |  |  | > 10000 nM | 204 nM |  | 79.5 M⁻¹ s⁻¹ | CC#CC(=O)N1CC[C@@H](N2CC(c3cc4c(c(C5CC5)n3)O[C@@H](C)c3c(N5CCOCC5)ccnc3N4)C2)C1 (single isomer, unassigned) [Compound 472] |
|  |  |  |  |  |  | 7590 nM | 204 nM |  | 351 M⁻¹ s⁻¹ | CC#CC(=O)N1CC(N2CC(c3cc(C#N)c4c(c3)Nc3nccc(C5CCOCC5)c3[C@@H](C)O4)C2)C1 (single isomer, unassigned) [Compound 475] |
|  |  |  |  |  |  | > 10000 nM | 166 nM |  | 342 M⁻¹ s⁻¹ | C=CC(=O)N1CC(N2CC(c3cc4c(c(C)n3)O[C@H](C)c3c(C5CCOCC5)ccnc3N4)C2)C1 (single isomer, unassigned) [Compound 477] |
|  |  |  |  |  |  | > 10000 nM | 158 nM |  | 292 M⁻¹ s⁻¹ | C=CC(=O)N1CC[C@H](N2CC(c3cc4c(c(C)n3)O[C@H](C)c3c(-c5cnn(C)c5)ccnc3N4)C2)C1 (single isomer, unassigned) [Compound 478] |
|  |  |  |  |  |  | > 10000 nM | 4570 nM |  | 2.97 M⁻¹ s⁻¹ | C=CC(=O)N1CC(N2CC(c3cc4c(c(C)n3)O[C@@H](C)c3c(C5CCOCC5)ccnc3N4)C2)C1 (single isomer, unassigned) [Compound 480] |
|  |  |  |  |  |  | > 10000 nM | 89.1 nM |  | 339 M⁻¹ s⁻¹ | C=CC(=O)N1CC[C@@H](N2CC(c3cc4c(c(C)n3)O[C@H](C)c3c(-c5cnn(C)c5)ccnc3N4)C2)C1 (single isomer, unassigned) [Compound 482] |
|  |  |  |  |  |  | > 10000 nM | 5620 nM |  | 1.32 M⁻¹ s⁻¹ | CC#CC(=O)N1CC(N2CC(c3cc(C#N)c4c(c3)Nc3nccc(C5CCOCC5)c3[C@H](C)O4)C2)C1 (single isomer, unassigned) [Compound 486] |
|  |  |  |  |  |  | > 10000 nM | > 10000 nM |  | 1.54 M⁻¹ s⁻¹ | CC#CC(=O)N1CC(N2CC(c3cc4c(c(C)n3)O[C@@H](C)c3c(C5CCOCC5)ccnc3N4)C2)C1 (single isomer, unassigned) [Compound 487] |
|  |  | 0.328 µM |  |  |  | > 10000 nM | ~302 nM | 4.23e-05 s⁻¹ | 129 M⁻¹ s⁻¹ | CC#CC(=O)N1CC(N2CC(c3cc4c(c(C)n3)O[C@H](C)c3c(C5CCOCC5)ccnc3N4)C2)C1 (single isomer, unassigned) [Compound 488] |
|  |  |  |  |  |  | 3470 nM | 58.9 nM |  | 305 M⁻¹ s⁻¹ | C=CC(=O)N1CCC(N2CC(c3cc4c(c(C#N)n3)O[C@H](C)c3c(N5CCOCC5)ccnc3N4)C2)CC1 (single isomer, unassigned) [Compound 489] |

— patent publication US20240254138A1, “TRICYCLIC PYRIMIDINES AS CYCLIN-DEPENDENT KINASE 7 (CDK7) INHIBITORS” (JANSSEN PHARMACEUTICA NV, priority 2021, published 2024)
